Measured values taken from the Deep4Chem optical property database.
One block for each compound: values may come before it.

Test: solvent given as SMILES
[1] = in c1ccc2c(c1)c1ccccc1n2-c1ccc(-c2ccc(-n3c4ccccc4c4ccccc43)cc2)cc1

Compound: CC1=CC(c2ccc3cc(N(C)C)ccc3c2)=[O+][B-](F)(F)O1
emission maximum (in C1CCOC1): 566 nm | emission maximum (in CC#N): 611 nm | emission maximum (in CC(C)=O): 492 nm | emission maximum (in CS(C)=O): 624 nm | emission maximum (in Cc1ccccc1): 521 nm | emission maximum (in ClC(Cl)Cl): 552 nm | emission maximum (in ClCCl): 574 nm

Compound: CCCCCCc1cc2c3c(c1)c(=C1c4ccccc4Sc4ccccc41)c1cc(CCCCCC)cc4c1N3c1c(cc(CCCCCC)cc1c4=C1c3ccccc3Sc3ccccc31)c2=C1c2ccccc2Sc2ccccc21
emission maximum (in ClCCl): 498 nm

Compound: CC(C)(C)[Si](C)(C)c1cccc2ccccc12
emission maximum (in C1CCCCC1): 329 nm

Compound: Cc1c(C)c(N2c3ccccc3Oc3ccccc32)c(C)c(C)c1B(c1c(C)c(C)c(N2c3ccccc3Oc3ccccc32)c(C)c1C)c1c(C)c(C)c(N2c3ccccc3Oc3ccccc32)c(C)c1C
emission maximum (in CC(C)(C)c1ccc(-n2c3ccc([Si](c4ccccc4)(c4ccccc4)c4ccccc4)cc3c3cc([Si](c4ccccc4)(c4ccccc4)c4ccccc4)ccc32)cc1): 509 nm

Compound: O=C1c2ccccc2-c2c(-c3ccccc3O)[nH]c(=O)n21
emission maximum (in CC#N): 480 nm | emission maximum (in CO): 498 nm | emission maximum (in ClCCl): 477 nm

Compound: c1ccc(-c2nc(-c3ccc(-n4c5ccccc5c5ccc6c(c7ccccc7n6-c6ccccc6)c54)cc3)c3sc4ccccc4c3n2)cc1
emission maximum (in Cc1ccccc1): 465.01 nm

Compound: CC[N+](CC)=c1ccc2c(-c3ccccc3C(=O)O)c3c(=O)oc4cc5c(cc4c3oc-2c1)CCCN5C
emission maximum (in CCO): 651 nm | emission maximum (in ClC(Cl)Cl): 647 nm | emission maximum (in O): 658 nm

Compound: COC(=O)/C(C#N)=c1\s/c(=c2/s/c(=C(/C#N)C(=O)OC)c3cc(-c4ccc(C(F)(F)F)cc4)sc23)c2sc(-c3ccc(C(F)(F)F)cc3)cc12
emission maximum (in Cc1ccccc1): 625 nm

Compound: C[SiH]1c2ccccc2-c2cc3c(cc21)-c1ccccc1[SiH]3C (stereo unspecified)
emission maximum (in ClCCl): 389 nm

Compound: CC(C)(C)c1ccc(C2=C(Br)C3=C(c4ccccc4)c4c(Br)c(-c5ccc(C(C)(C)C)cc5)c(-c5ccc(C(C)(C)C)cc5)n4[B-](F)(F)[N+]3=C2c2ccc(C(C)(C)C)cc2)cc1
emission maximum (in C1CCCCC1): 614 nm | emission maximum (in C1CCOC1): 617 nm | emission maximum (in CC#N): 613 nm | emission maximum (in Cc1ccccc1): 618 nm | emission maximum (in ClCCl): 619 nm

Compound: CC[N+]1(CC)CN2C(=N1)C(C(=O)O)=Cc1c2ccc2ccccc12
emission maximum (in O): 487 nm

Compound: O=S1(=O)c2ccc(-c3ccc(-n4c5ccccc5c5ccccc54)cc3)cc2C2(c3ccccc3-c3ccccc32)c2cc(-c3ccc(-n4c5ccccc5c5ccccc54)cc3)ccc21
emission maximum (in CC(C)=O): 443.88 nm | emission maximum (in CCCCCC): 400.18 nm | emission maximum (in CN(C)C=O): 455.8 nm | emission maximum (in Cc1ccccc1): 396.57 nm | emission maximum (in ClCCl): 432 nm

Compound: CC1=C(Br)C(C)=[N+]2C1=C(c1c(-c3ccccn3)nc3ccccn13)c1c(C)c(Br)c(C)n1[B-]2(F)F
emission maximum (in ClCCl): 571 nm

Compound: c1cc2ccc3ccc(OP4(Oc5ccc6ccc7cccc8ccc5c6c78)=NP(Oc5ccc6ccc7cccc8ccc5c6c78)(Oc5ccc6ccc7cccc8ccc5c6c78)=NP(Oc5ccc6ccc7cccc8ccc5c6c78)(Oc5ccc6ccc7cccc8ccc5c6c78)=N4)c4ccc(c1)c2c34
emission maximum (in ClCCl): 459 nm

Compound: CC(C)[Si]1(C(C)C)c2cc(N(C)C)ccc2-c2ccc(C(F)(F)F)cc21
emission maximum (in C1CCCCC1): 402 nm | emission maximum (in CC#N): 440 nm | emission maximum (in CCO): 422 nm | emission maximum (in CCOCC): 410 nm | emission maximum (in CS(C)=O): 451 nm | emission maximum (in ClCCl): 423 nm | emission maximum (in c1ccccc1): 410 nm

Compound: CCCCN(CCCC)c1ccc(C#Cc2cc(C#Cc3ccc(N(CCCC)CCCC)cc3)c(C#Cc3ccc([N+](=O)[O-])cc3)cc2C#Cc2ccc([N+](=O)[O-])cc2)cc1
emission maximum (in ClCCl): 552 nm

Compound: CCCCCCc1cc(B(c2c(C)cc(C)cc2C)c2c(C)cc(C)cc2C)c(-c2sc(CCCCCC)cc2P(=O)(c2ccccc2)c2ccccc2)s1
emission maximum (in CO): 605 nm

Compound: O=C(c1ccc(N2c3ccccc3Oc3ccccc32)cc1)c1cccc(C(=O)c2ccc(N3c4ccccc4Oc4ccccc43)cc2)c1
emission maximum (in Cc1ccccc1): 566 nm | emission maximum (in c1cc(-c2cccc(-n3c4ccccc4c4ccccc43)c2)cc(-n2c3ccccc3c3ccccc32)c1): 541 nm

Compound: N#Cc1ccc2nc3[nH]c(=O)[nH]c(=O)c3nc2c1
emission maximum (in ClCCCl): 420 nm

Compound: CN1CCCc2cc(C3=Cc4cccc[n+]4[B-](F)(F)O3)ccc21
emission maximum (in ClC(Cl)Cl): 508 nm

Compound: CCOCCOCCOC(=O)/C=C/C1=CC2=C(c3c(C)cc(C)cc3C)c3cccn3[B-](F)(F)[N+]2=C1
emission maximum (in ClCCl): 567 nm

Compound: CC1(C)c2ccccc2N(c2ccc(C(=O)c3cc(C(=O)c4ccc(N5c6ccccc6C(C)(C)c6ccccc65)cc4)cc(C(=O)c4ccc(N5c6ccccc6C(C)(C)c6ccccc65)cc4)c3)cc2)c2ccccc21
emission maximum (in Cc1ccccc1): 530 nm | emission maximum [1]: 521 nm

Compound: N#CC(C#N)=Cc1ccc(-c2cccc(-c3nc4ccccc4s3)c2O)s1
emission maximum (in CCO): 630 nm | emission maximum (in ClCCl): 607 nm | emission maximum (in O): 646 nm

Compound: CC1(C)OB(c2cc3ccc4cc(B5OC(C)(C)C(C)(C)O5)cc5ccc(c2)c3c45)OC1(C)C
emission maximum (in Cc1ccccc1): 400 nm

Compound: CCCCCCCCN1c2ccc(C#Cc3ccc(C(F)(F)F)cc3)cc2Sc2cc(C=O)ccc21
emission maximum (in C1CCOC1): 512 nm | emission maximum (in CC#N): 534 nm | emission maximum (in CCCCCC): 490 nm | emission maximum (in CO): 500 nm | emission maximum (in CS(C)=O): 539 nm | emission maximum (in Cc1ccccc1): 509 nm | emission maximum (in ClC(Cl)Cl): 535 nm

Compound: N#Cc1cc(-n2c3ccccc3c3ccccc32)nc(-n2c3ccccc3c3ccccc32)n1
emission maximum (in Cc1ccccc1): 471 nm

Compound: N#Cc1c(N2CCCCC2)cc(-c2ccc3ccccc3c2)c2c1-c1ccccc1C2
emission maximum (in C1CCOC1): 462 nm

Compound: CCCCCCCCCCCCOc1cc2c3cc(OCCCCCCCCCCCC)c(OCCCCCCCCCCCC)cc3c3c(cc(OCCCCCCCCCCCC)c4nc5cc(C#Cc6ccc(OCCC(C)CCCC(C)C)cc6)c(C#Cc6ccc(OCCC(C)CCCC(C)C)cc6)cc5nc43)c2cc1OCCCCCCCCCCCC (stereo unspecified)
emission maximum (in ClC(Cl)Cl): 660 nm

Compound: CC[n+]1c(C=C2C(=O)C(C=C3N(C)c4ccccc4C3(C)C)=C2[O-])sc2ccccc21
emission maximum (in CO): 651 nm | emission maximum (in ClC(Cl)Cl): 666 nm

Compound: N#Cc1cc(-n2c3ccccc3c3ccccc32)c(-n2c3ccccc3c3ccccc32)cc1C#N
emission maximum (in C1CCOC1): 501 nm | emission maximum (in Cc1ccccc1): 473 nm | emission maximum [1]: 474 nm

Compound: CC(C)(C)c1ccc2c(c1)c1cc(C(C)(C)C)ccc1n2-c1ccc(C#Cc2ccc(C#Cc3ccc(-n4c5ccc(C(C)(C)C)cc5c5cc(C(C)(C)C)ccc54)cc3)cc2)cc1
emission maximum (in CC#N): 470 nm | emission maximum (in CCCCC): 385 nm | emission maximum (in CO): 453 nm | emission maximum (in Cc1ccccc1): 400 nm | emission maximum (in ClC(Cl)Cl): 419 nm | emission maximum (in ClCCl): 437 nm

Compound: CC(C)(C)c1ccc2c(c1)c1cc(C(C)(C)C)ccc1n2-c1ccc(S(=O)(=O)c2cccc(S(=O)(=O)c3ccc(-n4c5ccc(C(C)(C)C)cc5c5cc(C(C)(C)C)ccc54)cc3)c2)cc1
emission maximum (in Cc1ccccc1): 422 nm

Compound: O=S(=O)(c1ccccc1)c1ccc(-c2ccc3c4ccc(-c5ccc(S(=O)(=O)c6ccccc6)cc5)cc4n(-c4ccccc4)c3c2)cc1
emission maximum (in CCCCCC): 409 nm | emission maximum (in CN(C)C=O): 437 nm | emission maximum (in CO): 434 nm | emission maximum (in Cc1ccccc1): 413 nm | emission maximum (in ClCCl): 411 nm

Compound: O=c1oc2ccc3cccc4c(O)c(Cl)c(c1Cl)c2c34
emission maximum (in CC1CCCO1): 500 nm

The remaining lines, values ahead:

emission maximum (in C1CCOC1): 396 nm
Compound: c1ccc(-n2c(-c3ccccc3-n3c4ccccc4c4ccccc43)nc3ccccc32)cc1

emission maximum (in ClCCl): 472 nm
Compound: N#Cc1cc(/C=C/c2ccc(N(c3ccccc3)c3ccccc3)cc2)ccc1-c1ccc(/C=C/c2ccc(N(c3ccccc3)c3ccccc3)cc2)cc1C#N

emission maximum (in CCCCCCC): 410 nm
Compound: c1cc2c3c(cccc3c1)-c1cc3c(ccc4ccccc43)cc1-2

emission maximum (in C1CCCCC1): 400 nm | emission maximum (in CC#N): 506 nm
Compound: Cc1ccc(/C=C/c2ccccc2-[n+]2noc([O-])c2-c2ccccc2)cc1

emission maximum (in C1CCOC1): 351.7 nm | emission maximum (in CC#N): 352.7 nm | emission maximum (in CC(C)O): 351.3 nm | emission maximum (in CCCCO): 351.4 nm | emission maximum (in CCO): 352.3 nm | emission maximum (in CO): 352.2 nm | emission maximum (in ClCCl): 353.1 nm | emission maximum (in O): 355.5 nm
Compound: COc1ccc2cc([C@H](C)C(=O)O)ccc2c1

emission maximum (in ClCCl): 482 nm
Compound: c1ccc(N(c2ccccc2)c2ccc(-c3ccncn3)cc2)cc1

emission maximum (in C1CCCCC1): 490 nm | emission maximum (in CC#N): 514 nm | emission maximum (in CCO): 552 nm
Compound: COc1ccc2c(c1)-c1cc(OC)ccc1C2=O

emission maximum (in C1CCOC1): 415.2 nm
Compound: CC(C)(C)c1ccc(-c2nc(-c3ccc(-n4c5ccccc5c5c6oc7ccccc7c6ccc54)cc3)nc(-c3ccc(C(C)(C)C)cc3)n2)cc1

emission maximum (in ClCCl): 425 nm
Compound: CC(C)c1cccc(C(C)C)c1N1C(=O)c2cccc3c(Oc4ccccc4)ccc(c23)C1=O

emission maximum (in ClCCl): 430 nm
Compound: O=C1c2cc3ccccc3cc2C2=Nc3ccc4ccccc4[n+]3[B-](F)(F)N12

emission maximum (in CCO): 460 nm
Compound: Cc1c(C)n2c(COC(=O)c3ccc(F)cc3)c(C)c(=O)n2c1=O

emission maximum (in ClC(Cl)Cl): 614 nm
Compound: Cc1cc(C)c(C2=C3C=CC(c4ccccc4O)=[N+]3[B-]3(c4ccccc4)Oc4ccccc4-c4ccc2n43)c(C)c1 (stereo unspecified)

emission maximum (in C1CCOC1): 621 nm | emission maximum (in CCCCCC): 520 nm | emission maximum (in ClCCl): 638 nm | emission maximum (in c1ccccc1): 580 nm
Compound: O=C1OC(=O)c2ccc(N(c3ccccc3)c3ccc4ccccc4c3)c3cccc1c23

emission maximum (in c1ccccc1): 434 nm
Compound: CON(C)C(=O)c1ccc(/C=C/c2ccc(/C=C/c3ccc(C(=O)N(C)OC)cc3)cc2)cc1

emission maximum (in CO): 534 nm
Compound: c1ccc(N(c2ccccc2)c2ccc(-c3ncc(-c4ccncc4)s3)cc2)cc1

emission maximum (in C1COCCO1): 352 nm
Compound: COc1ccc(-c2ccc(-c3ccc(F)cc3)cc2)cc1

emission maximum (in ClCCl): 441 nm
Compound: CCCCn1c(-c2ccc(-c3nnc(-c4ccccc4)o3)cc2)nc(-c2ccccc2)c1-c1ccccc1

emission maximum (in C1CCOC1): 516 nm
Compound: C[Si](C)(C)c1ccc(-c2ccc(-c3ccc(-c4ccc(-c5ccc([Si](C)(C)C)cc5)cc4)c4nsnc34)cc2)cc1
